{"source": "patent US7235375B2", "about": "“Organic anion transport proteins” (Bristol-Myers Squibb Company, priority 1999, dated 2007)", "molecular_target": "T1, OATP2 (Homo sapiens, UniProt Q9Y6L6, N130D)", "T1 sequence (Q9Y6L6 1-691 N130D)": "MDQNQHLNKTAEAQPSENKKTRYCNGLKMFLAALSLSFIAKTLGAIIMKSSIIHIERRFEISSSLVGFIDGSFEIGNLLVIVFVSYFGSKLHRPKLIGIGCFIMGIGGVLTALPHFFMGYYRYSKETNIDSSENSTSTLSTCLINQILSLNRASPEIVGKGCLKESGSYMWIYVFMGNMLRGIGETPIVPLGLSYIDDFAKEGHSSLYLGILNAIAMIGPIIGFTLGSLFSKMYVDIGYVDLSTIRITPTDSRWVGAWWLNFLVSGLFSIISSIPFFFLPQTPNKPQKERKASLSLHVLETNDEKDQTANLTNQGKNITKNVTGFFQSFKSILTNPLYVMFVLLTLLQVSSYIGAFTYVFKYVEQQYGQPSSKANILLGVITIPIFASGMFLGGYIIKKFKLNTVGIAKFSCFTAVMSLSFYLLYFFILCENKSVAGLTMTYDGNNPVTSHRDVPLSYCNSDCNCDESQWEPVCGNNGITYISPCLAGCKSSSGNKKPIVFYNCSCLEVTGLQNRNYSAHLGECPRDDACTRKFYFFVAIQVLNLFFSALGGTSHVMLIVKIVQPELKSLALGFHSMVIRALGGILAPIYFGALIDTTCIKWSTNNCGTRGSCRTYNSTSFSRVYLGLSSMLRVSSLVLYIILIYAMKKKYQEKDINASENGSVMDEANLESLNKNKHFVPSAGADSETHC", "conditions": "293EBNA (HEK293 derivative) cells transfected with pCEP-OATP2 or empty vector (MOCK), uptake for 5 minutes, absence and presence of excess unlabeled substrate, FIG. 2", "protocol": "An assay for the measurement of OATP activity is performed as follows: HEK293 cells are plated in Dulbeccos Modified Eagles Medium (DMEM) plus 10% fetal bovine serum plus penicillin and streptomycin, in poly-d-lysine coated dishes and co-transfected with OATP transporter expression plasmids using Lipofectamine Plus (Life Technologies, Inc.). The cells and media are assayed for substrate transport 24 hours later. Alternatively, cell lines engineered to stably express OATPs could be plated and assayed directly without transfection. To measure transport, media is removed and monolayers are assayed in triplicate by washing once in serum-free DMEM and adding the same medium containing [^3H]-substrate alone or in the presence of various concentrations of unlabeled test compounds. […] The transport activity is expressed as moles of substrate transported into cells/mg of cell protein/minute. […]\n293EBNA cells (Invitrogen, Inc.), an HEK293 cell derivative, were transiently transfected with the OATP2 expression vector pCEP-OATP2, or the pCEP4 vector alone (MOCK) and the transport of [^3H]-labeled substrates was determined 24 hours later. […] The uptake of radiolabeled substrate for 5 minutes into cells transfected with pCEP-OATP2 or empty vector (MOCK) was determined in the absence (solid bars) and presence (open bars) of excess unlabeled substrate.", "note": "Where two headings read alike, the source gives them in different places.", "data": [{"smiles": "NC(Cc1cc(I)c(Oc2cc(I)c(O)c(I)c2)c(I)c1)C(=O)O", "note": "(centres unmarked) [thyroid hormone (T4)]", "values": [{"measurement": "transport (specific uptake of radiolabeled substrate) by OATP2", "result": "specific uptake"}, {"measurement": "transport (specific uptake of radiolabeled substrate) by OATP2", "setting": "listed as thyroid hormone (T)", "result": "transports"}]}]}
